Holding throughout (assay): relative viability (nuclei count vs DMSO), 5 days (fraction); higher = more cells survive
Compound in experiment [1]: C1=CC=C2C(=C1)C=CC(=C2SSC3=C(C=CC4=CC=CC=C43)O)O [IPA-3] + CC(=O)Nc1cccc(-n2c(=O)n(C3CC3)c(=O)c3c(Nc4ccc(I)cc4F)n(C)c(=O)c(C)c32)c1 [Trametinib] (partner 0.02 µM)
The gist of the method:
(§1)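 Nuclei were stained with Hoechst during a one-step fixation (final 0.05% Triton X-100, 1% formaldehyde, 1 ug/ml Hoechst) carried out 5 days after dosing, then counted on 4× images. The cells, lung cancer lines in 1536-well plates, had been dosed by pin tool the day after seeding with one drug alone or a fixed anchor-drug dose plus five library-drug doses (not always all listed) in √10 steps. Relative viability is the nuclei count in treated wells divided by that in vehicle wells, and each value is the median of duplicate plates.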

Compound in experiment [2]: C1=CC=C2C(=C1)C=CC(=C2SSC3=C(C=CC4=CC=CC=C43)O)O [IPA-3] + CS(=O)(=O)N1CCN(Cc2cc3nc(-c4cccc5[nH]ncc45)nc(N4CCOCC4)c3s2)CC1 [Pictilisib] (partner 1 µM)
Summed up: as §1

Compound in experiment [3]: Cc1ccc(-n2nc(C(C)(C)C)cc2NC(=O)Nc2ccc(OCCN3CCOCC3)c3ccccc23)cc1 [Doramapimod] + Cc1nc(NC(=O)N2CCC[C@H]2C(N)=O)sc1-c1ccnc(C(C)(C)C(F)(F)F)c1 [Alpelisib] (partner 2 µM)
Summed up:
as §1

Compound in experiment [4]: Cn1c(Nc2ccc(C(F)(F)F)cc2)nc2cc(Oc3ccnc(-c4ncc(C(F)(F)F)[nH]4)c3)ccc21 [RAF265] + N=C(N)NC(=N)NCCc1ccccc1 [Phenformin] (partner 250 µM)
Summed up: as §1

In the case of NCI-H2023, the relative viability amounted to 0.735 in experiment [1] (first compound 0.2 µM); 0.453 in experiment [1] (first compound 0.6325 µM); 0.659 in experiment [1] (first compound 2 µM); 0.612 in experiment [1] (first compound 6.325 µM); 0.584 in experiment [1] (first compound 20 µM); 0.275 in experiment [2] (first compound 0.2 µM). Further, the relative viability stood at 0.243 in experiment [2] (first compound 0.6325 µM); 0.248 in experiment [2] (first compound 2 µM); 0.301 in experiment [2] (first compound 6.325 µM); 0.258 in experiment [2] (first compound 20 µM); 0.498 in experiment [3] (first compound 0.02 µM); 0.54 in experiment [3] (first compound 0.06325 µM). Further, the relative viability in experiment [3] (first compound 0.2 µM) was determined as 0.503; in experiment [3] (first compound 0.6325 µM) it was 0.617; in experiment [3] (first compound 2 µM) it was 0.503; in experiment [4] (first compound 0.01 µM), 0.421; in experiment [4] (first compound 0.03162 µM), 0.407; in experiment [4] (first compound 0.1 µM) it was 0.391. In addition, the figures for the relative viability in experiment [4] (first compound 0.3162 µM) and in experiment [4] (first compound 1 µM) were 0.353 and 0.322, respectively.

Take NCI-H2085: the relative viability is 0.625 in experiment [1] (first compound 0.2 µM); 0.602 in experiment [1] (first compound 0.6325 µM); 0.637 in experiment [1] (first compound 2 µM); 0.577 in experiment [1] (first compound 6.325 µM); 0.714 in experiment [1] (first compound 20 µM); 0.44 in experiment [2] (first compound 0.2 µM). Besides, the relative viability is 0.44 in experiment [2] (first compound 0.6325 µM); 0.447 in experiment [2] (first compound 2 µM); 0.426 in experiment [2] (first compound 6.325 µM); 0.535 in experiment [2] (first compound 20 µM); 1.03 in experiment [3] (first compound 0.02 µM); 0.928 in experiment [3] (first compound 0.06325 µM). For the same cell line, the relative viability in experiment [3] (first compound 0.2 µM) was 0.839; in experiment [3] (first compound 0.6325 µM) it was 0.913; in experiment [3] (first compound 2 µM), 0.93; in experiment [4] (first compound 0.01 µM) it was 0.858; in experiment [4] (first compound 0.03162 µM) it was 0.683; in experiment [4] (first compound 0.1 µM) it was 0.742. Further, the relative viability in experiment [4] (first compound 0.3162 µM) came out at 0.642; in experiment [4] (first compound 1 µM), 0.644.

Consider NCI-H2087, for which the relative viability in experiment [1] (first compound 0.2 µM) amounted to 0.235; in experiment [1] (first compound 0.6325 µM), 0.267; in experiment [1] (first compound 2 µM), 0.178; in experiment [1] (first compound 6.325 µM), 0.227; in experiment [1] (first compound 20 µM) it was 0.271; in experiment [2] (first compound 0.2 µM) it was 0.891. The relative viability in experiment [2] (first compound 0.6325 µM) worked out at 0.784; in experiment [2] (first compound 2 µM), 0.894; in experiment [2] (first compound 6.325 µM), 0.936; in experiment [2] (first compound 20 µM), 1.01; in experiment [3] (first compound 0.02 µM), 1.2; in experiment [3] (first compound 0.06325 µM), 1.25. Besides, the relative viability in experiment [3] (first compound 0.2 µM) is 1.05; in experiment [3] (first compound 0.6325 µM), 1.23; in experiment [3] (first compound 2 µM), 0.838; in experiment [4] (first compound 0.01 µM), 0.512; in experiment [4] (first compound 0.03162 µM) it was 0.413; in experiment [4] (first compound 0.1 µM), 0.377. Moreover, the relative viability was 0.331 in experiment [4] (first compound 0.3162 µM) and 0.287 in experiment [4] (first compound 1 µM).

Consider NCI-H2126, for which the relative viability in experiment [1] (first compound 0.2 µM) was 0.569; in experiment [1] (first compound 0.6325 µM) it was 0.56; in experiment [1] (first compound 2 µM), 0.521; in experiment [1] (first compound 6.325 µM), 0.501; in experiment [1] (first compound 20 µM), 0.6; in experiment [2] (first compound 0.2 µM) it was 0.48. The relative viability in experiment [2] (first compound 0.6325 µM) worked out at 0.505; in experiment [2] (first compound 2 µM), 0.449; in experiment [2] (first compound 6.325 µM) it was 0.503; in experiment [2] (first compound 20 µM), 0.512; in experiment [3] (first compound 0.02 µM) it was 0.743; in experiment [3] (first compound 0.06325 µM), 0.733. Besides, the relative viability turned out to be 0.733 in experiment [3] (first compound 0.2 µM); 0.742 in experiment [3] (first compound 0.6325 µM); 0.662 in experiment [3] (first compound 2 µM); 0.508 in experiment [4] (first compound 0.01 µM); 0.551 in experiment [4] (first compound 0.03162 µM); 0.558 in experiment [4] (first compound 0.1 µM). For the same cell line, the relative viability in experiment [4] (first compound 0.3162 µM) turned out to be 0.512; in experiment [4] (first compound 1 µM), 0.459.

In the case of NCI-H2170, the relative viability is 0.958 in experiment [1] (first compound 0.2 µM); 0.923 in experiment [1] (first compound 0.6325 µM); 0.868 in experiment [1] (first compound 2 µM); 0.846 in experiment [1] (first compound 6.325 µM); 0.993 in experiment [1] (first compound 20 µM); 0.324 in experiment [2] (first compound 0.2 µM). For the same cell line, the relative viability was 0.302 in experiment [2] (first compound 0.6325 µM); 0.303 in experiment [2] (first compound 2 µM); 0.303 in experiment [2] (first compound 6.325 µM); 0.346 in experiment [2] (first compound 20 µM); 0.802 in experiment [3] (first compound 0.02 µM); 0.823 in experiment [3] (first compound 0.06325 µM). Further, the relative viability in experiment [3] (first compound 0.2 µM) was 0.769; in experiment [3] (first compound 0.6325 µM), 0.915; in experiment [3] (first compound 2 µM), 0.741; in experiment [4] (first compound 0.01 µM) it was 0.408; in experiment [4] (first compound 0.03162 µM), 0.38; in experiment [4] (first compound 0.1 µM) it was 0.453. Also, the relative viability is 0.319 in experiment [4] (first compound 0.3162 µM) and 0.366 in experiment [4] (first compound 1 µM).

On to NCI-H2228, for which the relative viability stood at 0.768 in experiment [1] (first compound 0.2 µM); 0.405 in experiment [1] (first compound 0.6325 µM); 0.365 in experiment [1] (first compound 2 µM); 0.634 in experiment [1] (first compound 6.325 µM); 0.379 in experiment [1] (first compound 20 µM); 0.74 in experiment [2] (first compound 0.2 µM). The relative viability in experiment [2] (first compound 0.6325 µM) was 0.223; in experiment [2] (first compound 2 µM) it was 0.343; in experiment [2] (first compound 6.325 µM) it was 0.513; in experiment [2] (first compound 20 µM), 0.439; in experiment [3] (first compound 0.02 µM), 0.911; in experiment [3] (first compound 0.06325 µM) it was 0.518. Further, the relative viability in experiment [3] (first compound 0.2 µM) came to 0.619; in experiment [3] (first compound 0.6325 µM), 0.753; in experiment [3] (first compound 2 µM), 0.649; in experiment [4] (first compound 0.01 µM), 0.287; in experiment [4] (first compound 0.03162 µM), 0.387; in experiment [4] (first compound 0.1 µM), 0.357. Moreover, the results for the relative viability in experiment [4] (first compound 0.3162 µM) and in experiment [4] (first compound 1 µM) were 0.203 and 0.186, respectively.

For NCI-H2347, the relative viability in experiment [1] (first compound 0.2 µM) amounted to 0.278; in experiment [1] (first compound 0.6325 µM), 0.276; in experiment [1] (first compound 2 µM), 0.286; in experiment [1] (first compound 6.325 µM), 0.268; in experiment [1] (first compound 20 µM) it was 0.281; in experiment [2] (first compound 0.2 µM), 0.423. The relative viability in experiment [2] (first compound 0.6325 µM) is 0.644; in experiment [2] (first compound 2 µM), 0.522; in experiment [2] (first compound 6.325 µM), 0.717; in experiment [2] (first compound 20 µM), 0.605; in experiment [3] (first compound 0.02 µM), 1.09; in experiment [3] (first compound 0.06325 µM), 0.926. For the same cell line, the relative viability was 1.06 in experiment [3] (first compound 0.2 µM); 1.05 in experiment [3] (first compound 0.6325 µM); 0.957 in experiment [3] (first compound 2 µM); 0.338 in experiment [4] (first compound 0.01 µM); 0.426 in experiment [4] (first compound 0.03162 µM); 0.394 in experiment [4] (first compound 0.1 µM). The figures for the relative viability in experiment [4] (first compound 0.3162 µM) and in experiment [4] (first compound 1 µM) were 0.218 and 0.166, respectively.

Values taken from the supplement of paper PMC10307832.
